Blank lines part the entries; values can stand above or below the compound they belong to.
Columns and labels:
[1] = Optical microscope image analysis of droplet / crystal size in aqueous emulsion or dispersion; assay type: physicochemical; details: for crystal size immediately after sonication: all four samples (6 and 2 lhr^−1); for droplet size of hot emulsion: before cooling
From the text: (§1) A small sample of the cooled sonicated emulsion was transferred using a capillary tube to a microscope slide and was protected with a glass cover slip. The slide was viewed using transmitted light or cross-polarised light (Zeiss microscope) and an image recorded on a calibrated micrograph. The micrograph provides information as to the size (μm), shape and degree of crystallinity of the droplets or crystals.

[2] = ΔH/RT value (heat of fusion by differential scanning calorimetry divided by R and melting point in K); assay type: physicochemical
Method: The value ΔH/RT is a well understood expression which means the enthalpy (heat) of fusion of a compound (ΔH in kJmol^−1) at the normal melting point of the compound divided by the molar gas constant (R, where R is 8.31451 Jmol^−1K^−1) and the melting point of the compound measured on the absolute or Kelvin scale (in °K). Thus, for example, the ΔH/RT value of octadecane, which has a melting point of 28.2° C. and a heat of fusion of 61.39 kJmol^−1 (see the CRC Handbook of Chemistry and Physics, [1996-1997], 77th Edition. 6-138) is calculated as follows: […]
The heat of fusion of a compound (ΔH) may be measured by differential scanning calorimetry. A suitable method is described by McNaughton, J. L. and Mortimer, C. T. in IRS: Physical Chemistry Series 2, Butterworth, London 1975, Vol 10; subsequently reprinted by Perkin-Elmer Corpn. Norwalk, Conn., USA.

[3] = Storage of crystalline dispersion, Ostwald ripening (crystal growth) under optical microscope; assay type: physicochemical; details: 1% w/w sonicated dispersion, after one week
From the text: as §1
The number of spheres/particles in the final dispersion was similar to the number of droplets in the original hot emulsion which indicated nucleation had occurred preferentially in the droplets.

[4] = CRC Handbook of Chemistry and Physics, 77th Edition; cited from earlier work
[5] = 1% w/w aqueous dispersion, sonicated, higher flow (6 lhr^−1)
[6] = enthalpy of fusion at normal melting point / (R × melting point in K)
[7] = 1% w/w aqueous dispersion, cooled to 20° C., continuous sonication 500 w
[8] = 1% w/w in aqueous Mowiol 18-88, emulsified five minutes by high shear mixer

size of plates after sonication [1, 5]: 30 μm
size of small needles after sonication [1, 5]: 2 μm
ΔH/RT [2, 6]: 1.15
Compound: C=C1C2CC[C@@H](C2)C1(C)C [camphene, (1S)-2,2-dimethyl-3-methylenebicyclo[2.2.1]heptane]

Compound: CCCCNC(=O)OCC#CI [IPBC, 3-iodo-2-propynyl butyl carbamate]
Ostwald ripening (crystal growth) of sonicated dispersion [3]: no sign of “Ostwäld” ripening
crystal size immediately after sonication [1, 7]: < 10 μm
droplet size of hot emulsion [1, 8]: ≤ 10 μm
ΔH/RT [2, 6]: 9.25

Compound: α-methyl-4-(2-methylpropyl)benzene acetic acid [ibuprofen]
crystal size immediately after sonication [1, 7]: < 10 μm
droplet size of hot emulsion [1, 8]: ≤ 10 μm
crystal size (twinned crystals) without sonication ([1]; 2% aqueous dispersion, cooled without sonication, equilibrated for 18 hrs): 100-200 μm
crystal size (crystalline spheres) immediately after sonication ([1]; 20% w/w aqueous dispersion, cooled to 20° C., continuous sonication 500 w, all four samples): < 10 μm
droplet size of hot emulsion ([1]; 20% w/w in aqueous Mowiol 18-88, emulsified five minutes by high shear mixer): ≤ 10 μm
ΔH/RT [2, 6]: 9.33

ΔH/RT ([2]; calculated from CRC Handbook melting point 28.2° C. and heat of fusion): 24.5
Compound: CCCCCCCCCCCCCCCCCC [octadecane]
heat of fusion [4]: 61.39 kJmol^−1

From patent US6517853B1, “Process for preparing a crystal suspension” (Syngenta Limited, priority 1999, dated 2003)
